{
  "source": "patent EP2537923A1",
  "about": "“Method for activation of specific peripheral blood mononuclear cells” (Oncotyrol Center for Personalized Cancer Medicine GmbH, priority 2011, dated 2012)",
  "system": "human PBMCs",
  "assay": "Stimulation of PBMCs with anti-CD1b antibody and/or IL-2, cytokines measured in culture supernatants",
  "format": "cell-based",
  "conditions": "PMB at 10 µg/ml (60 U/ml); anti-CD16 as Fc γ receptor blocking antibody",
  "excerpt": "PBMCs are then separated from whole blood or from leukapheresis products. Any method for separating mononuclear cells may be used. For example, the Ficoll separation method, i.e., a Ficoll-Paque density gradient is frequently used. For this purpose LSM1077 Lymphocyte Separation Medium (PAA, Pasching, Austria) in combination with Leucosep (greiner bio-one, Frickenhausen, Germany) can be used for the optimal separation of PBMCs.\nThe whole PBMCs or the CD56-positive PBMCs obtained are resuspended preferably at cell numbers of 1.0-1.5 x 10^6/ml in a cell culture medium such as RPMI-1640 (Lonza, Basel, Switzerland), AIM-V (Invitrogen, Carlsbad, CA, USA) or CellGro SCGM (CellGenix, Freiburg, Germany). The cell culture medium may be further supplemented with autologous or clinical quality heterologous serum or plasma at 1-20%. There is no limitation for the culture vessels used, which may be a plate, laboratory dish, flask, bag typically used for cell cultivation.\nAn antibody directed against CDlb (clone B-B5 from Diaclone, Besancon, France or clone WM25 from ImmunoKontact via AMS Biotechnology, Lugano, Switzerland) is added to these cultures. […] Activation as detected by the BD FastImmune (BD Biosciences, San Jose, CA, USA) of NK cells and T cells (both αß T cells and γδ T cells) occurs already within the first 12 to 16 hours. […]",
  "data": [
    {"substance": "polymyxin B [PMB]", "values": [
      {"measurement": "effect on IFN-γ production / response induced by CDlb antibodies", "result": "failed to abolish"}
    ]}
  ]
}
